# Assays:
# Test in all cases: Test G pre/postemergence
# Format in all cases: in vivo
# [1] = test system: green foxtail (Setaria viridis)
# Procedure, shortened: (§1)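 Test chemicals in a non-phytotoxic solvent blend with surfactant are applied to soil after seeding or to foliage of 2–18 cm seedlings. Greenhouse response is scored visually at 12–21 days on a 0 to 100 control scale.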
# [2] = test system: southern sandbur (Cenchrus echinatus)
# Procedure, shortened: as §1
# [3] = test system: Italian ryegrass (Lolium multiflorum)
# Procedure, shortened: as §1
# [4] = test system: prickly sida (Sida spinosa)
# Procedure, shortened: as §1
# [5] = test system: common chickweed (Stellaria media)
# Procedure, shortened: as §1
# [6] = test system: black mustard (Brassica nigra)
# Procedure, shortened: as §1
# [7] = test system: tropical spiderwort (Commelina benghalensis)
# Procedure, shortened: as §1
# [8] = test system: quackgrass (Elytrigia repens)
# Procedure, shortened: as §1
# [9] = test system: field bindweed (Convolvulus arvensis)
# Procedure, shortened: as §1
# [10] = test system: downy bromegrass (Bromus tectorum)
# Procedure, shortened: as §1
# [11] = test system: goosegrass (Eleusine indica)
# Procedure, shortened: as §1
# [12] = test system: common ragweed (Ambrosia elatior)
# Procedure, shortened: as §1
# [13] = test system: pitted morningglory (Ipomoea lacunosa)
# Procedure, shortened: as §1
# [14] = test system: common mallow (Malva sylvestris)
# Procedure, shortened: as §1
# [15] = Postemergence, 250 g ai/ha, scale 0 to 100
# [16] = Postemergence, 16 g ai/ha, scale 0 to 100
# [17] = Postemergence, 31 g ai/ha, scale 0 to 100
# [18] = Postemergence, 62 g ai/ha, scale 0 to 100
# [19] = Postemergence, 125 g ai/ha, scale 0 to 100
# [20] = Preemergence, 16 g ai/ha, scale 0-100
# [21] = Preemergence, 31 g ai/ha, scale 0-100
# [22] = Preemergence, 62 g ai/ha, scale 0-100
# [23] = Preemergence, 125 g ai/ha, scale 0-100
# [24] = Preemergence, 250 g ai/ha, scale 0-100
smiles,measurement,setting,value
"Nc1nc(C2CC2)nc(C(=O)OCc2ccccc2)c1Br [Compound 22, phenylmethyl 6-amino-5-bromo-2-cyclopropyl-4-pyrimidinecarboxylate]","Plant response rating, Foxtail, Green",[1]; [15],75
same,"Plant response rating, Foxtail, Green",[1]; [16],0
same,"Plant response rating, Foxtail, Green",[1]; [17],15
same,"Plant response rating, Foxtail, Green",[1]; [18],25
same,"Plant response rating, Foxtail, Green",[1]; [19],50
same,"Plant response rating, Foxtail, Green",[1]; [20],0
same,"Plant response rating, Foxtail, Green",[1]; [21],0
same,"Plant response rating, Foxtail, Green",[1]; [22],0
same,"Plant response rating, Foxtail, Green",[1]; [23],10
same,"Plant response rating, Foxtail, Green",[1]; [24],20
same,"Plant response rating, Sandbur",[2]; [15],95
same,"Plant response rating, Sandbur",[2]; [16],0
same,"Plant response rating, Sandbur",[2]; [17],15
same,"Plant response rating, Sandbur",[2]; [18],40
same,"Plant response rating, Sandbur",[2]; [19],85
same,"Plant response rating, Sandbur",[2]; [20],0
same,"Plant response rating, Sandbur",[2]; [21],0
same,"Plant response rating, Sandbur",[2]; [22],0
same,"Plant response rating, Sandbur",[2]; [23],70
same,"Plant response rating, Sandbur",[2]; [24],85
same,"Plant response rating, Ryegrass, Italian",[3]; [15],85
same,"Plant response rating, Ryegrass, Italian",[3]; [16],0
same,"Plant response rating, Ryegrass, Italian",[3]; [17],5
same,"Plant response rating, Ryegrass, Italian",[3]; [18],15
same,"Plant response rating, Ryegrass, Italian",[3]; [19],40
same,"Plant response rating, Ryegrass, Italian",[3]; [20],0
same,"Plant response rating, Ryegrass, Italian",[3]; [21],0
same,"Plant response rating, Ryegrass, Italian",[3]; [22],0
same,"Plant response rating, Ryegrass, Italian",[3]; [23],0
same,"Plant response rating, Ryegrass, Italian",[3]; [24],50
same,"Plant response rating, Prickly Sida",[4]; [15],95
same,"Plant response rating, Prickly Sida",[4]; [16],75
same,"Plant response rating, Prickly Sida",[4]; [17],85
same,"Plant response rating, Prickly Sida",[4]; [18],90
same,"Plant response rating, Prickly Sida",[4]; [19],95
same,"Plant response rating, Prickly Sida",[4]; [20],50
same,"Plant response rating, Prickly Sida",[4]; [21],50
same,"Plant response rating, Prickly Sida",[4]; [22],65
same,"Plant response rating, Prickly Sida",[4]; [23],80
same,"Plant response rating, Prickly Sida",[4]; [24],95
same,"Plant response rating, Chickweed",[5]; [15],95
same,"Plant response rating, Chickweed",[5]; [17],50
same,"Plant response rating, Chickweed",[5]; [18],50
same,"Plant response rating, Chickweed",[5]; [19],85
same,"Plant response rating, Chickweed",[5]; [20],0
same,"Plant response rating, Chickweed",[5]; [21],50
same,"Plant response rating, Chickweed",[5]; [23],90
same,"Plant response rating, Chickweed",[5]; [24],100
same,"Plant response rating, Black Mustard",[6]; [15],95
same,"Plant response rating, Black Mustard",[6]; [16],50
same,"Plant response rating, Black Mustard",[6]; [17],75
same,"Plant response rating, Black Mustard",[6]; [18],75
same,"Plant response rating, Black Mustard",[6]; [19],95
same,"Plant response rating, Black Mustard",[6]; [20],30
same,"Plant response rating, Black Mustard",[6]; [21],35
same,"Plant response rating, Black Mustard",[6]; [22],60
same,"Plant response rating, Black Mustard",[6]; [23],65
same,"Plant response rating, Black Mustard",[6]; [24],75
same,"Plant response rating, Spiderwort",[7]; [15],98
same,"Plant response rating, Spiderwort",[7]; [16],15
same,"Plant response rating, Spiderwort",[7]; [17],40
same,"Plant response rating, Spiderwort",[7]; [18],85
same,"Plant response rating, Spiderwort",[7]; [19],95
same,"Plant response rating, Spiderwort",[7]; [20],0
same,"Plant response rating, Spiderwort",[7]; [21],50
same,"Plant response rating, Spiderwort",[7]; [22],95
same,"Plant response rating, Spiderwort",[7]; [23],100
same,"Plant response rating, Spiderwort",[7]; [24],100
same,"Plant response rating, Quackgrass",[8]; [15],85
same,"Plant response rating, Quackgrass",[8]; [16],15
same,"Plant response rating, Quackgrass",[8]; [17],40
same,"Plant response rating, Quackgrass",[8]; [18],65
same,"Plant response rating, Quackgrass",[8]; [19],75
same,"Plant response rating, Quackgrass",[8]; [20],0
same,"Plant response rating, Quackgrass",[8]; [21],0
same,"Plant response rating, Quackgrass",[8]; [22],20
same,"Plant response rating, Quackgrass",[8]; [23],20
same,"Plant response rating, Quackgrass",[8]; [24],30
same,"Plant response rating, Bindweed, Field",[9]; [15],100
same,"Plant response rating, Bindweed, Field",[9]; [16],85
same,"Plant response rating, Bindweed, Field",[9]; [17],100
same,"Plant response rating, Bindweed, Field",[9]; [18],100
same,"Plant response rating, Bindweed, Field",[9]; [19],100
same,"Plant response rating, Bindweed, Field",[9]; [20],65
same,"Plant response rating, Bindweed, Field",[9]; [21],75
same,"Plant response rating, Bindweed, Field",[9]; [22],90
same,"Plant response rating, Bindweed, Field",[9]; [23],90
same,"Plant response rating, Bindweed, Field",[9]; [24],100
same,"Plant response rating, Bromegrass, Downy",[10]; [15],95
same,"Plant response rating, Bromegrass, Downy",[10]; [16],15
same,"Plant response rating, Bromegrass, Downy",[10]; [17],65
same,"Plant response rating, Bromegrass, Downy",[10]; [18],85
same,"Plant response rating, Bromegrass, Downy",[10]; [19],95
same,"Plant response rating, Bromegrass, Downy",[10]; [20],0
same,"Plant response rating, Bromegrass, Downy",[10]; [21],0
same,"Plant response rating, Bromegrass, Downy",[10]; [22],0
same,"Plant response rating, Bromegrass, Downy",[10]; [23],20
same,"Plant response rating, Bromegrass, Downy",[10]; [24],75
same,"Plant response rating, Goosegrass",[11]; [15],50
same,"Plant response rating, Goosegrass",[11]; [16],5
same,"Plant response rating, Goosegrass",[11]; [17],15
same,"Plant response rating, Goosegrass",[11]; [18],25
same,"Plant response rating, Goosegrass",[11]; [19],35
same,"Plant response rating, Goosegrass",[11]; [20],0
same,"Plant response rating, Goosegrass",[11]; [21],0
same,"Plant response rating, Goosegrass",[11]; [22],0
same,"Plant response rating, Goosegrass",[11]; [23],0
same,"Plant response rating, Goosegrass",[11]; [24],0
same,"Plant response rating, Ragweed",[12]; [15],100
same,"Plant response rating, Ragweed",[12]; [16],65
same,"Plant response rating, Ragweed",[12]; [17],85
same,"Plant response rating, Ragweed",[12]; [18],98
same,"Plant response rating, Ragweed",[12]; [19],98
same,"Plant response rating, Ragweed",[12]; [20],65
same,"Plant response rating, Ragweed",[12]; [21],75
same,"Plant response rating, Ragweed",[12]; [22],90
same,"Plant response rating, Ragweed",[12]; [23],95
same,"Plant response rating, Ragweed",[12]; [24],100
same,"Plant response rating, Morningglory",[13]; [15],100
same,"Plant response rating, Morningglory",[13]; [16],50
same,"Plant response rating, Morningglory",[13]; [17],85
same,"Plant response rating, Morningglory",[13]; [18],85
same,"Plant response rating, Morningglory",[13]; [19],95
same,"Plant response rating, Morningglory",[13]; [20],20
same,"Plant response rating, Morningglory",[13]; [21],50
same,"Plant response rating, Morningglory",[13]; [22],60
same,"Plant response rating, Morningglory",[13]; [23],90
same,"Plant response rating, Morningglory",[13]; [24],90
same,"Plant response rating, Mallow",[14]; [15],95
same,"Plant response rating, Mallow",[14]; [16],40
same,"Plant response rating, Mallow",[14]; [17],60
same,"Plant response rating, Mallow",[14]; [19],85
same,"Plant response rating, Mallow",[14]; [20],50
same,"Plant response rating, Mallow",[14]; [21],50
same,"Plant response rating, Mallow",[14]; [22],75
same,"Plant response rating, Mallow",[14]; [23],80
same,"Plant response rating, Mallow",[14]; [24],80

# — patent US8802597B2, “Herbicidal pyrimidines” (E I du Pont de Nemours and Company, priority 2003, dated 2014)
